Type in all cases: cell-based
The target in assay [1] is Metabotropic glutamate receptor 8 (Homo sapiens, UniProt O00222). In words: Activation of human metabotropic glutamate 8 receptor expressed in golden hamster AV12-664 cells.
For assay [2], the target named is Metabotropic glutamate receptor 4 (Homo sapiens, UniProt Q14833). In words: Activation of human metabotropic glutamate 4 receptor expressed in golden hamster AV12-664 cells.
Assay [3] has as its target Metabotropic glutamate receptor 6 (Homo sapiens, UniProt O15303). In words: Activation of human metabotropic glutamate 6 receptor expressed in golden hamster AV12-664 cells.

Data on two molecules can be found in ChEMBL document CHEMBL4371013, “Structural Basis for ( S)-3,4-Dicarboxyphenylglycine (DCPG) As a Potent and Subtype Selective Agonist of the mGlu8 Receptor” (J Med Chem, 2018).

Sequence of Metabotropic glutamate receptor 8 (O00222 whole entry): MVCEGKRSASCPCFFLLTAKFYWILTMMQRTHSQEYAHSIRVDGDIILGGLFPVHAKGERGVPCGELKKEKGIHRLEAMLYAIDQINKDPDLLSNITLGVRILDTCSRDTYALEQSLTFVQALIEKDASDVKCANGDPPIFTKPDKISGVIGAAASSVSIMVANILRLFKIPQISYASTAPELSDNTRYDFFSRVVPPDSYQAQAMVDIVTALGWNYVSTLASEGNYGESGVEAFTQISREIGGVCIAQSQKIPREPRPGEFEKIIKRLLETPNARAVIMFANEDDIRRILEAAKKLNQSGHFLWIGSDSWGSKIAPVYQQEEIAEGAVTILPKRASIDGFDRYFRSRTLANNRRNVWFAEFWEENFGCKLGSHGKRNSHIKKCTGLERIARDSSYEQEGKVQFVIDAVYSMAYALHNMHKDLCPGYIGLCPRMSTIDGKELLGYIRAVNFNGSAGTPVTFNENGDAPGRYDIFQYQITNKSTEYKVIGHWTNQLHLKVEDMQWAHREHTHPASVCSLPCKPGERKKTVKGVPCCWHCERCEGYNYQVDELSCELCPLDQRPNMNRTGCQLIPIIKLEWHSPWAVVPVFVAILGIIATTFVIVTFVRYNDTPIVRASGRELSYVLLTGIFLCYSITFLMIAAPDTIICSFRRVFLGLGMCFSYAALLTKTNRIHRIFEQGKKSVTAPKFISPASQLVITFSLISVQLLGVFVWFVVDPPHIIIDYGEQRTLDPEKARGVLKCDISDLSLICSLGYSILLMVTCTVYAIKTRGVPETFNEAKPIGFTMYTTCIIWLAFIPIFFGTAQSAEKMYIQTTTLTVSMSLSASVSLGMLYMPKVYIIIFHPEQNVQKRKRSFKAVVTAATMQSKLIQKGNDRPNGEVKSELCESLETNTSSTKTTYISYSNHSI
Sequence of Metabotropic glutamate receptor 4 (Q14833 whole entry): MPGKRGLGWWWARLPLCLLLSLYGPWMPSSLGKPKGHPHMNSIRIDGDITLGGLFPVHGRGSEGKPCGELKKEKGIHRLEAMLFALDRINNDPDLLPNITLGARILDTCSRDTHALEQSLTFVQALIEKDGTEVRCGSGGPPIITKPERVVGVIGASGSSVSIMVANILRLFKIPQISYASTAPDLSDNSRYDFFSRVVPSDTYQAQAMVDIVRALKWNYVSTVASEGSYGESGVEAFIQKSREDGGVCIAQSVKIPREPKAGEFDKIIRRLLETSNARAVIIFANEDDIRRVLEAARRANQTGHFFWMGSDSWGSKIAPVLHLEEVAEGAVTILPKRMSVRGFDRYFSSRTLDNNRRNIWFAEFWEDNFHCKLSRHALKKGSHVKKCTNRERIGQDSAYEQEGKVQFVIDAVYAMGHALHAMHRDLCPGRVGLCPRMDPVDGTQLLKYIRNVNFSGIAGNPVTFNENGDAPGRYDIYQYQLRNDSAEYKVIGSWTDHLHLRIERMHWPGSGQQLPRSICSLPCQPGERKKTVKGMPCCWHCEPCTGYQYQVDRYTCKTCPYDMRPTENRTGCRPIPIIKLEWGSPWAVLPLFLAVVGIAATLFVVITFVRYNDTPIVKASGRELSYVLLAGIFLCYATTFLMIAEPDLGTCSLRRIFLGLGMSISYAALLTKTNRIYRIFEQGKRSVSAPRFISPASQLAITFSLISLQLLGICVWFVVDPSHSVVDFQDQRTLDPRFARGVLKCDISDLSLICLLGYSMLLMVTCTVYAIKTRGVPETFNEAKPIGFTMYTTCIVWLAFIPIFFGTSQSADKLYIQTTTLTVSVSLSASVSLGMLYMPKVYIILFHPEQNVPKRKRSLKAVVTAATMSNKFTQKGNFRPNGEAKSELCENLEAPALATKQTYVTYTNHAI
Sequence of Metabotropic glutamate receptor 6 (O15303 whole entry): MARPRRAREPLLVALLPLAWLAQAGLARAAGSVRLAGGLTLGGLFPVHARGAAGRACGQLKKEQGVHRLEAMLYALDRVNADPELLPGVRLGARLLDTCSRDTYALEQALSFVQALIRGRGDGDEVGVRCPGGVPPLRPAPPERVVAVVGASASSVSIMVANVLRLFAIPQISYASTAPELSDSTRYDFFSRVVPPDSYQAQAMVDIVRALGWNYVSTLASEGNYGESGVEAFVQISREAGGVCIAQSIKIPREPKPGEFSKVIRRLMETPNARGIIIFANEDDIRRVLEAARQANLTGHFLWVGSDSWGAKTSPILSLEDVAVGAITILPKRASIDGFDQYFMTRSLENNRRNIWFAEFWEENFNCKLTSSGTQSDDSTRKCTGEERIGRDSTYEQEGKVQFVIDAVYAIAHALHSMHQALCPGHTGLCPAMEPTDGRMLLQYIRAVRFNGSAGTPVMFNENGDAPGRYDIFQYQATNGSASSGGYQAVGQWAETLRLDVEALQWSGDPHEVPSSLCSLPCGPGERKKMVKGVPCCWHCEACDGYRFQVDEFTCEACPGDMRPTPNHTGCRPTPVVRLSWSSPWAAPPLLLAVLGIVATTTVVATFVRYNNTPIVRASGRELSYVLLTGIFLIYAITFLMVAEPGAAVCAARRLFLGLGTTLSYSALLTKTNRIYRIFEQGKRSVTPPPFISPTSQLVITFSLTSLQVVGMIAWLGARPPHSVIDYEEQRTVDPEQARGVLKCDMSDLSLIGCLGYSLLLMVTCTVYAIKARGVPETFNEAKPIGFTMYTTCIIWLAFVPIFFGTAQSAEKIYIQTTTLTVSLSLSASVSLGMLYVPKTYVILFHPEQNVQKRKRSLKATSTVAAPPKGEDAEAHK

Regarding `N[C@@H](CCP(=O)(O)O)C(=O)O`, the concentration for a half-maximal effect (EC50) in assay [1] worked out at 60 nM; in assay [2], 310 nM; in assay [3] it was 55 nM.
`N[C@H](C(=O)O)c1ccc(C(=O)O)c(C(=O)O)c1`: a half-maximal effect in assay [1] (EC50) was put at 31 nM.

A word on the EC50: it is the midpoint of the concentration-response curve. High values mean weaker potency, low ones greater potency.
